One block for each molecule: values may come before it.
Key:
FAAH [1] = target: T1, FAAH (Homo sapiens, UniProt O00519); assay: In vitro FAAH assay: luciferin amide treated with recombinant FAAH, then R218K luciferase, bioluminescence; assay type: biochemical
T1 construct: purchased Cayman Chemical
T1 sequence (O00519 1-579): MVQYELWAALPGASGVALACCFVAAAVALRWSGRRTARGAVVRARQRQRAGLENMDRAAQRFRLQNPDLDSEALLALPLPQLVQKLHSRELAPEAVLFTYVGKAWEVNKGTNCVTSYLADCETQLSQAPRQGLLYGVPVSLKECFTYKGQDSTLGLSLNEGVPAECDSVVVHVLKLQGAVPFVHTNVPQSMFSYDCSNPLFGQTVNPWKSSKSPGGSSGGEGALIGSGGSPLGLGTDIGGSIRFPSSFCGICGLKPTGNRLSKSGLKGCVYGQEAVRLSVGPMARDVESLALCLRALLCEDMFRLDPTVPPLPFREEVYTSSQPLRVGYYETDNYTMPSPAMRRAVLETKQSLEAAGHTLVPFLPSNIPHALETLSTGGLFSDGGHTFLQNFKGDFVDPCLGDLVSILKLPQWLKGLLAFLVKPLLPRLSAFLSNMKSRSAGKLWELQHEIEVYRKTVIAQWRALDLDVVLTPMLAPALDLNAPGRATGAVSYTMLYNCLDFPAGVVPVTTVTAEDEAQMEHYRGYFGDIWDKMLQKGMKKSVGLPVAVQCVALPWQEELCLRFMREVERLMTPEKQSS
Method: Recombinant FAAH, FAAH assay buffer, and FAAH inhibitors URB-597, PF-750, and PF-3845 were purchased from Cayman Chemical.
Bioluminescence assays were performed in either a Turner Veritas luminometer or a Xenogen IVIS-100 imaging system. For Veritas experiments, white 96-well plates were used (Costar 3912). For IVIS experiments, black 96-well plates were used (Costar 3915).
Luciferin amides (50 μM) were treated with FAAH and FAAH buffer (Cayman Chemical) in the presence or absence of 50 μM FAAH inhibitor URB-597 or 50 μM luciferase inhibitor 2-(4′-methoxyphenyl)benzothiazole. After 10 minutes at room temperature, R218K mutant firefly luciferase was added at a concentration of 3 μg/mL and bioluminescence was detected on a Turner Veritas luminometer.
Four luciferin amides (50 μM), i.e., Compounds 1, 9, 10, and 25, were treated with a buffer alone, a buffer containing FAAH, a buffer containing FAAH+50 μM URB-597 (i.e., a FAAH inhibitor), or a buffer containing FAAH+50 μM luciferase inhibitor 2-(4′-methoxyphenyl)benzothiazole. After 10 minutes at room temperature, R218K luciferase was added at a concentration of 3 μg/mL and bioluminescence was detected on a Turner Veritas.
Three luciferin amides (50 μM), i.e., Compounds 2, 9, and 25, were treated with a buffer alone, a buffer containing FAAH, a buffer containing FAAH 1:10 (i.e., a ten-fold dilution of FAAH), a buffer containing pig liver esterase (PLE), or a buffer containing PLE 1:10 (i.e., a ten-fold dilution of PLE). After one hour at room temperature, R218K luciferase was added at a concentration of 3 μg/mL and bioluminescence was detected on a Turner Veritas.

[2] = system: FVB mice expressing luciferase in brain tissue; assay: In vivo bioluminescence imaging in brains of FVB mice injected with AAV9-luc+ in the striatum; conditions: for light emission in brains of live mice (qualitative): mouse, in vivo
Method: (§1) FVB mice were injected with AAV9-luc+ in the brain striatum. Bioluminescence assays were performed approximately nine months after AAV injection. Each luciferin amide was diluted into PBS to the indicated concentration from a 50 mM DMSO stock solution and filtered (0.22 μm) prior to intraperitoneally injection (0.1 mL per mouse). Mice were anesthetized with isoflurane (2% in 1 L/min oxygen) and images acquired on a Xenogen IVIS 100 imaging system and analyzed with Living Image software.
Certain luciferin amides described herein were tested to determine whether they would image well in live mice. For these studies, FVB mice were injected with adeno-associated virus 9 (AAV9)-luciferase constructs into the brain striatum.
Bioluminescence imaging (BLI) in the brain is more challenging than imaging in the rest of the organism, in part because a luciferase substrate (i.e., a luciferin) must cross the blood-brain barrier. Therefore, the ability of a synthetic luciferin (i.e., Compound 9's corresponding luciferin (CycLuc1)) to allow bioluminescence imaging in these mice, as compared to the native firefly luciferase substrate (i.e., D-luciferin) was first tested. Specifically, each substrate was injected intraperitoneally (IP) in PBS at a volume of 0.1 mL, D-luciferin being at a concentration of 100 mM and CycLuc1 being at a concentration of 5 mM. […] CycLuc1 was then injected at a 320-fold lower dose (0.06 mL of 0.5 mM) than D-luciferin.
Specifically, Compound 9 (i.e., CycLuc1 amide) was injected at 0.5 mM in 0.5% DMSO/PBS (0.06 mL).
In this figure, mice in the top row were treated with luciferin amides in the amounts indicated in the figure, and the mice in the bottom row were the same mice that were imaged one day later using a standard dose of D-luciferin.

FAAH [3] = target: T2, FAAH (Mus musculus, UniProt O08914); assay: In vivo FAAH inhibition assay with PF-3845; set-up: species or system mice; conditions: for total photon flux, average: 0.1 mM (0.1 mL) IP
T2 construct: metabolized into CycLuc1 by endogenous FAAH activity; from tissue; host or cells: brain (striatum) of live FVB mice expressing AAV9-delivered luciferase
T2 sequence (O08914 1-579): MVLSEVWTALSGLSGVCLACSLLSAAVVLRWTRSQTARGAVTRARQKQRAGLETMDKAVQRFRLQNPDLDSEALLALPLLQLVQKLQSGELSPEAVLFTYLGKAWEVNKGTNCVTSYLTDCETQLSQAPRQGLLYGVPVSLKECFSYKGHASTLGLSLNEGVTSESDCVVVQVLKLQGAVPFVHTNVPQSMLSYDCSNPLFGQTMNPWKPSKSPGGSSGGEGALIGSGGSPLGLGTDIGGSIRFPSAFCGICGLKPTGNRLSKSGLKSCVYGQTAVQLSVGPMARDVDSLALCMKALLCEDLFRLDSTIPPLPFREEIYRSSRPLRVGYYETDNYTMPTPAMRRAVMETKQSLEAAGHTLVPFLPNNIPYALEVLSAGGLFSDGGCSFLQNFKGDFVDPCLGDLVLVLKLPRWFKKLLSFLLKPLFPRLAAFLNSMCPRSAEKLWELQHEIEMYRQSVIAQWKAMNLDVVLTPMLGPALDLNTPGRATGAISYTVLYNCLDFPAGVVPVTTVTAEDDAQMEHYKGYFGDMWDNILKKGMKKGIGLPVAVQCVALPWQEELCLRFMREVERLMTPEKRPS
Method: as §1
Mice were injected intraperitoneally with 1 mg/mL of a specific FAAH inhibitor PF-3845 dissolved in 18:1:1 PBS:ethanol:emulphor (0.1 mL), or with an equal volume of 18:1:1 PBS:ethanol:emulphor control vehicle. Thirty minutes after injection, the mice were imaged as described above.
FAAH is highly expressed in most tissues, particularly in the brain. To determine whether the luciferin amides are cleaved exclusively by FAAH in the brain tissue, eight FVB mice expressing AAV9-luciferase in the striatum were divided into two groups: (1) four mice were injected IP with 1 mg/mL of a specific FAAH inhibitor PF-3845 dissolved in 18:1:1 PBS:ethanol:emulphor (0.1 mL), and (2) four mice were treated with an equal volume of 18:1:1 PBS:ethanol:emulphor control vehicle without PF-3845. After 30 minutes, one mouse from each group was IP injected with 5 mM CycLuc1 (i.e., Compound 9's corresponding luciferin) in PBS (0.1 mL), and three were injected with 0.1 mM Compound 5 in 0.2% DMSO/PBS (0.1 mL). The mice were imaged 10 minutes after substrate injection. Mice in the right panel were group (1) (i.e., treated with a FAAH inhibitor) and mice in the left panel were from group (2) (i.e., without being treated with a FAAH inhibitor).

[4] = system: live CHO cells expressing R218K luciferase; assay: Intact cell FAAH assay, light emission from live CHO cells expressing R218K luciferase; assay type: cell-based, Chinese hamster; conditions: 50 μM FAAH inhibitor
Method: Chinese hamster ovary-K1 (CHO-K1) cells were grown in a CO2 incubator at 37° C. with 5% CO2 and were cultured in F-12K Nutrient Mixture (GIBCO) supplemented with 10% fetal bovine serum and 100 U/mL penicillin/streptomycin.
Wild-type and R218K mutant luciferases were cloned into the BamHI-NotI site of pCDNA 3.1 and transiently transfected into CHO-K1 cells with Lipofectamine 2000 in 96-well tissue culture-treated plates for intact cell assays, or 6-well plates for lysed cell assays. For intact cells, 0.075 μg plasmid/well was transfected; for lysed cells, 2.25 μg plasmid/well was transfected.
[…] The cells were incubated for one hour in the CO2 incubator at 37° C. Cells were then washed with Hank's balanced salt solution (HBSS) and overlaid with 60 μL a luciferin amide substrate in HBSS. Imaging assays were performed 3 minutes after substrate addition, with final substrate concentrations ranging from 0.122 to 250 μM.
Seven luciferin amides, i.e., Compounds 1-4, 9, 10, and 25, were tested in live CHO cells expressing R218K luciferase at various concentrations (i.e., 0.12 μM, 0.25 μM, 0.5 μM, 1 μM, 2 μM, 4 μM, 8 μM, 16 μM, 31 μM, 62 μM, 125 μM, and 250 μM).
Compound 25 and Compound 10, as well as their corresponding luciferins (i.e., D-Luciferin and CycLuc2, respectively), were tested in live CHO cells expressing wild-type (WT) luciferase or R218K (RK) luciferase at various concentrations (i.e., 0.125 μM, 0.25 μM, 0.5 μM, 1 μM, 2 μM, 4 μM, 8 μM, 16 μM, 31 μM, 62 μM, 125 μM, and 250 μM).

increase in bioluminescence signal on addition of FAAH versus buffer (FAAH [1]; 50 μM luciferin amide, 10 minutes at room temperature, R218K luciferase 3 μg/mL): 167 fold
Molecule: CNc1ccc2nc(C3=N[C@@H](C(N)=O)CS3)sc2c1 [Compound 1, (S)-4,5-dihydro-2-(6-(methylamino)benzo[d]-thiazol-2-yl)thiazole-4-carboxamide]
light emission in brains of live mice (qualitative) [2]: relatively strong light emission

Molecule: CC(C)CNc1ccc2nc(C3=N[C@@H](C(N)=O)CS3)sc2c1 [Compound 3, (S)-4,5-dihydro-2-(6-(isobutylamino)benzo[d]-thiazol-2-yl)thiazole-4-carboxamide]
light emission in brains of live mice (qualitative) [2]: relatively strong light emission

Molecule: NC(=O)[C@H]1CSC(c2nc3ccc(NCCCO)cc3s2)=N1 [Compound 4, (S)-2-(6-(3-hydroxypropylamino)benzo[d]-thiazol-2-yl)-4,5-dihydrothiazole-4-carboxamide]
light emission in brains of live mice (qualitative) [2]: relatively weak light emission

total photon flux, average (FAAH [3]; group (1) treated with PF-3845): 4.4×10^4 p/s
total photon flux, average (FAAH [3]; group (2) vehicle without PF-3845): 1.3×10^7 p/s
Molecule: CC(C)Nc1ccc2nc(C3=N[C@@H](C(N)=O)CS3)sc2c1 [Compound 5, (S)-4,5-dihydro-2-(6-(isopropylamino)-benzo[d]thiazol-2-yl)thiazole-4-carboxamide]
Photon flux after treatment with luciferin analogs ([2]; 4 μM): 2.97E+05 p/s
signal as share of the D-luciferin signal ([2]; 4 μM, 25,000-fold lower dose): ~30%
Photon flux after treatment with luciferin analogs ([2]; 20 μM): 1.95E+06 p/s
Photon flux after treatment with luciferin analogs ([2]; 100 μM): 7.84E+06 p/s
Photon flux after treatment with luciferin analogs ([2]; 500 μM): 1.19E+07 p/s
photon flux relative to standard 100 mM D-luciferin ([2]; IP, 20 μM, 5000-fold lower dose): higher photon flux than the standard 100 mM D-luciferin
bioluminescence signal higher than standard D-luciferin imaging conditions ([2]; doses 200-fold and 1000-fold lower than standard D-luciferin dose): 5 fold
change of light output by FAAH inhibitor PF-3845 (group 1 vs group 2) (FAAH [3]; PF-3845 1 mg/mL (0.1 mL) IP 30 minutes before substrate): reduced by nearly three orders of magnitude

Molecule: CCNc1ccc2nc(C3=N[C@@H](C(N)=O)CS3)sc2c1 [Compound 6, (S)-2-(6-(ethylamino)benzo[d]thiazol-2-yl)-4,5-dihydrothiazole-4-carboxamide]
light emission in brains of live mice (qualitative) [2]: relatively strong light emission

Molecule: CCNc1ccc2nc(C3=N[C@@H](C(=O)NC)CS3)sc2c1 [Compound 7, (S)-2-(6-(ethylamino)benzo[d]thiazol-2-yl)-4,5-dihydro-N-methylthiazole-4-carboxamide]
light emission in brains of live mice (qualitative) [2]: relatively strong light emission

Molecule: NC(=O)[C@H]1CSC(c2nc3cc4c(cc3s2)NCCC4)=N1 [Compound 14, (S)-2-(5,6,7,8-tetrahydrothiazolo[4,5-g]quinolin-2-yl)-4,5-dihydrothiazole-4-carboxamide]
Photon flux after treatment with luciferin analogs ([2]; 100 μM): 1.43E+07 p/s
improved signal over 100 mM D-luciferin ([2]; 0.1 mM): more than 10 fold

Molecule: CN1CCc2cc3nc(C4=N[C@@H](C(=O)O)CS4)sc3cc21 [CycLuc2, reference compound]
effect of FAAH inhibitors URB-597, PF-750 and PF-3845 on light output [4]: no significant effect

Molecule: O=C(O)[C@H]1CSC(c2nc3ccc(O)cc3s2)=N1 [D-luciferin, reference compound]
Photon flux after treatment with luciferin analogs ([2]; 100 mM): 1.21E+06 p/s

Molecule: NC(=O)c1cccc(-c2cccc(OC(=O)NC3CCCCC3)c2)c1 [URB-597, reference compound]
inhibition of the FAAH-dependent bioluminescence signals of Compounds 1, 9, 10, 25 by FAAH inhibitor (FAAH [1]; 50 μM URB-597, 50 μM luciferin amide): more than 100 fold

Molecule: Me2N-luciferin methyl ester [reference compound]
light emission in brains of live mice (qualitative) [2]: relatively weak light emission
